The values below come from patent US10189843B2, “Fused pyrazole derivative having autotaxin inhibitory activity” (The University of Tokyo, priority 2014, dated 2019).

The structures appear in SMILES notation. Bounds are passed on as bounds.

In this test the target is T1, Human autotaxin enzyme (Homo sapiens, UniProt Q13822).
T1 construct: purchased R&D System
The experiment in a line: Evaluation of autotaxin inhibitor, Method C (18:0 Lyso PC substrate, choline assay, Resorufin fluorescence). The conditions noted are these: Method C (Test Example 3), read-out: Inhibitory activity (enzyme inhibitory activity, IC50). Type of test: biochemical. The gist of the method:
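Recombinant human autotaxin with compound and 200 μM 18:0 Lyso PC (stock) in Tris-HCl pH 7.5, NaCl, MgCl2, Triton X-100, 2 h RT. Released choline detected via choline oxidase/peroxidase/Amplex-type reagent, 20 min, resorufin fluorescence 531/598 nm; % inhibition vs no-compound and no-enzyme controls, concentration-response curve.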
Turning to `CCCCC1CN(CC(=O)N2CCC(C#N)CC2)C(=O)c2cc(-c3ccc(Cl)cc3)nn21` (stereo not drawn) [Compound I-0220], the 50% inhibitory concentration (IC50) (as a rule, the midpoint of a concentration-inhibition curve) is 100 to 1000 nM. With `CCCCCC1CN(CC(=O)N2CCC(C(=O)OCC)CC2)C(=O)c2cc(-c3ccc(Cl)cc3)nn21` (stereo not drawn) [Compound I-0004] the figure was 10 to 100 nM.

Consider `CCCOCC1CN(CC(=O)OC(C)(C)C)C(=O)c2cc(-c3ccc(Cl)cc3)nn21` (stereo not drawn) [Compound I-0250], for which the IC50 was 10 to 100 nM. With `CCCCCC1CN(CC(=O)N(C)CCN(C)C)C(=O)c2cc(-c3ccc(Cl)cc3)nn21` (stereo not drawn) [Compound I-0102], the IC50 is at least 1000 nM. Then `CCCCCC1CN(CC(=O)NCC(=O)O)C(=O)c2cc(-c3ccc(Cl)cc3)nn21` (stereo not drawn) [Compound I-0059], with 10 to 100 nM; and `CCCCCC1CN(CC(=O)N2CCCC(C(=O)O)C2)C(=O)c2cc(-c3ccc(Cl)cc3)nn21` (stereo not drawn) [Compound I-0050], with 10 to 100 nM; and `CCOC(=O)CN1CC(C2CC2)n2nc(-c3ccc(Cl)cc3)cc2C1=O` (stereo not drawn) [Compound I-0018], with at least 1000 nM. Then `CCCCC1CN(Cc2ccc(C#N)cc2)C(=O)c2cc(N3[C@@H]4CC[C@H]3CC(F)(F)C4)nn21` (stereo partly drawn) [Compound I-0307], with at least 1000 nM; and `CCCCCC1CN(Cc2cccc3c(C(=O)O)csc23)C(=O)c2cc(-c3ccc(Cl)cc3)nn21` (stereo not drawn) [Compound I-0121], with 10 to 100 nM; and `CCCCC1CN(CC(=O)NCC(O)CO)C(=O)c2cc(-c3ccc(Cl)cc3)nn21` (stereo not drawn) [Compound I-0219], with 100 to 1000 nM. `CCCCCC1CN(Cc2cccc(CC(=O)O)c2)C(=O)c2cc(-c3ccc(Cl)cc3)nn21` (stereo not drawn) [Compound I-0120]: the IC50 fell in the range of 10 to 100 nM. As for `CC(C)Nc1cc(Cl)ccc1-c1cc2n(n1)[C@@H](C)CN(Cc1ccc(C#N)cc1)C2=O` [Compound I-0349], the IC50 is 100 to 1000 nM. Turning to `CCCCC1CN(Cc2ccc(C#N)cc2)C(=O)c2cc(N3CCC(F)(F)CC3)nn21` (stereo not drawn) [Compound I-0302], the IC50 lay in the range of 100 to 1000 nM. Consider `C[C@H]1CN(CC(=O)N(C)CCC#N)C(=O)c2cc(-c3ccc(C#N)cc3NC(=O)CF)nn21` [Compound I-0353], for which the IC50 is below 10 nM. With `CCCCC1CN(CC(=O)N(CC#N)CC#N)C(=O)c2cc(-c3ccc(Cl)cc3)nn21` (stereo not drawn) [Compound I-0211] the figure was 10 to 100 nM; with `CCCCCC1CN(CC(=O)N(C)c2ccc(C(=O)O)cc2)C(=O)c2cc(-c3ccc(Cl)cc3)nn21` (stereo not drawn) [Compound I-0118], at least 1000 nM. With `CC(C)OCC1CNC(=O)c2cc(-c3ccc(Cl)cc3)nn21` (stereo not drawn) [Compound I-0199] the figure was at least 1000 nM; with `CCCCCC1CN(CC(=O)N2C[C@@H]3C(C(=O)O)[C@@H]3C2)C(=O)c2cc(-c3ccc(Cl)cc3)nn21` (stereo partly drawn) [Compound I-0063], 10 to 100 nM. For `CCCCC1CN(CC(=O)N(CC)CCC#N)C(=O)c2cc(-c3ccc(Cl)cc3)nn21` (stereo not drawn) [Compound I-0214], the IC50 is 10 to 100 nM. With `CC(=O)Nc1cc(C#N)ccc1-c1cc2n(n1)[C@@H](C)CN(Cc1cccc(C(=O)O)c1)C2=O` [Compound I-0344], the IC50 was below 10 nM. As to `CCOC(=O)CN1CC(C)(C)n2nc(-c3ccc(Cl)cc3)cc2C1=O` [Compound I-0014], the half-maximal inhibitory concentration (IC50) is at least 1000 nM. For `CCCCC1CN(CC(=O)C2CCCCC2)C(=O)c2cc(-c3ccc(Cl)cc3)nn21` (stereo not drawn) [Compound I-0254], the concentration for half-maximal inhibition (IC50) lay within 10 to 100 nM. As for `C[C@H]1CN(Cc2ccc(C#N)cc2)C(=O)c2cc(-c3ccc(Cl)cc3N)nn21` [Compound I-0320], the IC50 is at least 1000 nM. Consider `N#Cc1ccc(CN2CC(CC(F)(F)C(F)(F)C(F)(F)F)n3nc(-c4ccc(Cl)cc4)cc3C2=O)cc1` (stereo not drawn) [Compound I-0186], for which the half-inhibitory concentration (IC50) is at least 1000 nM. In the case of `CCCCCC1CN(CC(=O)Nc2ccccc2)C(=O)c2cc(-c3ccc(Cl)cc3)nn21` (stereo not drawn) [Compound I-0087], the IC50 was at least 1000 nM. In the case of `CCCCCC1CN(Cc2ccc(C#N)cc2)C(=O)c2cc(-c3ccc(Cl)cc3)nn21` (stereo not drawn) [Compound I-0132], the IC50 is 10 to 100 nM. With `CCCCCC1CN(Cc2cc(C(C)=O)ccc2OC)C(=O)c2cc(-c3ccc(Cl)cc3)nn21` (stereo not drawn) [Compound I-0136] the figure was at least 1000 nM. Turning to `CCCCC1CN(CC(=O)N(C)CCC#N)C(=O)c2cc(-c3ccc(Cl)cc3)nn21` (stereo not drawn) [Compound I-0209], the IC50 was 10 to 100 nM. Consider `CCCCC1CN(CC(=O)NCc2ccnc(O)c2)C(=O)c2cc(-c3ccc(Cl)cc3)nn21` (stereo not drawn) [Compound I-0236], for which the IC50 was at least 1000 nM. Regarding `CCCCCC1CN(CC(=O)N2CCC(C)CC2)C(=O)c2cc(-c3ccc(Cl)cc3)nn21` (stereo not drawn) [Compound I-0093], the IC50 lay within 100 to 1000 nM. `CCCCCC1CN(CC(=O)N2CCC(N(C)C)C2)C(=O)c2cc(-c3ccc(Cl)cc3)nn21` (stereo not drawn) [Compound I-0034]: the IC50 was at least 1000 nM.

Consider `CCCCC1CN(CC(=O)N2CCCC(C(N)=O)C2)C(=O)c2cc(-c3ccc(Cl)cc3)nn21` (stereo not drawn) [Compound I-0210], for which the IC50 lay in the range of 10 to 100 nM. Consider `CCCCC1CN(Cc2ccc(C#N)cc2)C(=O)c2cc(-c3ccc(S(F)(F)(F)(F)F)cc3)nn21` (stereo not drawn) [Compound I-0372], for which the IC50 is 100 to 1000 nM.

Take `CCCCC1CN(Cc2ccc(C#N)cc2)C(=O)c2cc(-c3ccc(OC(F)(F)F)cc3)nn21` (stereo not drawn) [Compound I-0194]: the IC50 fell in the range of 100 to 1000 nM.

In the case of `CC(C)(O)CNC(=O)CN1CC(COCC(F)(F)F)n2nc(-c3ccc(Cl)cc3)cc2C1=O` (stereo not drawn) [Compound I-0315], the IC50 lay in the range of 100 to 1000 nM.

Regarding `CCCCCC1CN(CC(=O)N2CCCC2c2ccccc2)C(=O)c2cc(-c3ccc(Cl)cc3)nn21` (stereo not drawn) [Compound I-0107], the IC50 is 100 to 1000 nM.

`O=C(O)C1CCN(C(=O)CN2C(=O)c3cc(-c4ccc(Cl)cc4)nn3[C@H]3CCC[C@H]32)CC1` [Compound I-0012]: the IC50 was 100 to 1000 nM. For the compound `CCCCC1CN(CC2CCCO2)C(=O)c2cc(-c3ccc(Cl)cc3)nn21` (stereo not drawn) [Compound I-0268], the half-maximal inhibitory concentration (IC50) was in the range of 10 to 100 nM. Turning to `CCCCC1CN(Cc2ccc(C#N)cc2)C(=O)c2cc(N3Cc4ccccc4C3)nn21` (stereo not drawn) [Compound I-0306], the IC50 is at least 1000 nM. Consider `C[C@H]1CN(CC(=O)N2CCCC2)C(=O)c2cc(-c3ccc(Cl)cc3)nn21` [Compound I-0154], for which the IC50 is at least 1000 nM. With `CCCCCC1CN(CC(=O)NCCN(C)C)C(=O)c2cc(-c3ccc(Cl)cc3)nn21` (stereo not drawn) [Compound I-0103] the figure was at least 1000 nM; with `CCCCC1CN(CC(=O)N2CCN(C(N)=O)CC2)C(=O)c2cc(-c3ccc(Cl)cc3)nn21` (stereo not drawn) [Compound I-0217], 100 to 1000 nM.

Regarding `CCCCCC1CN(CC(=O)N2CCCCC2C)C(=O)c2cc(-c3ccc(Cl)cc3)nn21` (stereo not drawn) [Compound I-0116], the IC50 was in the range of 10 to 100 nM.

For `CCOCC1CNC(=O)c2cc(-c3ccc(Cl)cc3)nn21` (stereo not drawn) [Compound I-0198], the IC50 is at least 1000 nM.

Take `CCCCCC1CN(c2cccc(OCC(=O)O)c2)C(=O)c2cc(-c3ccc(Cl)cc3)nn21` (stereo not drawn) [Compound I-0203]: the IC50 is at least 1000 nM. As to `CCOC(=O)C1CCN(C(=O)CN2CC(C)(C)n3nc(-c4ccc(Cl)cc4)cc3C2=O)CC1` [Compound I-0015], the IC50 was at least 1000 nM. In the case of `CCCCCC1CN(Cc2cccc(C#N)c2)C(=O)c2cc(-c3ccc(Cl)cc3)nn21` (stereo not drawn) [Compound I-0131], the IC50 was in the range of 100 to 1000 nM.

Turning to `C[C@H]1CN(Cc2ccc(C#N)cc2)C(=O)c2cc(-c3ccc(Cl)cc3Nc3nccs3)nn21` [Compound I-0324], the IC50 was at least 1000 nM.

In the case of `CC(=O)Nc1cc(OC(F)(F)F)ccc1-c1cc2n(n1)[C@@H](C)CN(Cc1ccc(C#N)cc1)C2=O` [Compound I-0334], the half-maximal inhibitory concentration (IC50) was below 10 nM. Then `CCCC1CN(Cc2ccc(C#N)cc2)C(=O)c2cc(-c3ccc(Cl)cc3NC(C)=O)nn21` (stereo not drawn) [Compound I-0188], with 10 to 100 nM. For the compound `CCCCC1CN(CC(=O)N2[C@@H]3CC[C@H]2C[C@@H](O)C3)C(=O)c2cc(-c3ccc(Cl)cc3)nn21` (stereo partly drawn) [Compound I-0238], the IC50 was 100 to 1000 nM. On to `CC(=O)Nc1cc(C(F)(F)F)ccc1-c1cc2n(n1)[C@@H](C)CN(Cc1ccc(C#N)cc1)C2=O` [Compound I-0333], for which the IC50 fell in the range of 10 to 100 nM.

On to `C[C@H]1CN(Cc2ccc(C#N)cc2)C(=O)c2cc(-c3c(N)cc(Cl)cc3CO)nn21` [Compound I-0346], for which the IC50 was in the range of 100 to 1000 nM. Turning to `CCCCCC1CN(CC(=O)N[C@H](C(=O)O)c2ccccc2)C(=O)c2cc(-c3ccc(Cl)cc3)nn21` (stereo partly drawn) [Compound I-0069], the half-maximal inhibitory concentration (IC50) is below 10 nM. `CCCCCC1CN(Cc2ccc(C)cc2)C(=O)c2cc(-c3ccc(Cl)cc3)nn21` (stereo not drawn) [Compound I-0130]: the half-inhibitory concentration (IC50) is 100 to 1000 nM.

With `CCCCCC1CN(Cc2cccc(C)c2)C(=O)c2cc(-c3ccc(Cl)cc3)nn21` (stereo not drawn) [Compound I-0128], the IC50 was at least 1000 nM. Then `CCOC(=O)CN1C[C@H](c2ccccc2)n2nc(-c3ccc(Cl)cc3)cc2C1=O` [Compound I-0021], with at least 1000 nM; and `CCCCCC1CN(CC(=O)N2CCC(c3ccccc3)C2)C(=O)c2cc(-c3ccc(Cl)cc3)nn21` (stereo not drawn) [Compound I-0110], with 100 to 1000 nM; and `CCCCC1CN(CC(=O)N[C@@H]2CCC[C@H]2O)C(=O)c2cc(-c3ccc(Cl)cc3)nn21` (stereo partly drawn) [Compound I-0245], with 100 to 1000 nM. For `CCOCC1CN(Cc2ccc(C#N)cc2)C(=O)c2cc(-c3ccc(Cl)cc3)nn21` (stereo not drawn) [Compound I-0178], the concentration for half-maximal inhibition (IC50) lay in the range of 100 to 1000 nM.

For `CCCCC1CN(CC(=O)N2CCC(OCCO)CC2)C(=O)c2cc(-c3ccc(Cl)cc3)nn21` (stereo not drawn) [Compound I-0243], the IC50 was 100 to 1000 nM. Then `C[C@H]1CN(Cc2ccc(C#N)cc2)C(=O)c2cc(-c3ccc(Cl)cc3C=O)nn21` [Compound I-0296], with 100 to 1000 nM; and `C[C@H]1CN(CC(=O)NCCCC(=O)O)C(=O)c2cc(-c3ccc(Cl)cc3)nn21` [Compound I-0157], with at least 1000 nM; and `CCCCC1CN(CC(=O)NCc2cccc(O)c2)C(=O)c2cc(-c3ccc(Cl)cc3)nn21` (stereo not drawn) [Compound I-0226], with 100 to 1000 nM. As for `CCCCCC1CN(CC(=O)N2CCCC2CO)C(=O)c2cc(-c3ccc(Cl)cc3)nn21` (stereo not drawn) [Compound I-0040], the IC50 was 100 to 1000 nM. As for `CCCCCC1CN(Cc2ccc(OCCCN(C)C)cc2)C(=O)c2cc(-c3ccc(Cl)cc3)nn21` (stereo not drawn) [Compound I-0134], the IC50 was at least 1000 nM.
